Experimental data published in PubChem BioAssay (NCI).
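All cell lines were grown in 96-well plates and treated with compound for 48 hours. TGI: concentration producing complete growth inhibition.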

Assays:
Assay in all cases: growth of human tumour cells (NCI), 48 h
M14 melanoma = tested on: M14 melanoma
RXF 393 renal = tested on: RXF 393 renal
BT-549 breast = tested on: BT-549 breast
IGROV1 ovarian = tested on: IGROV1 ovarian
UACC-62 melanoma = tested on: UACC-62 melanoma
SF-539 CNS = tested on: SF-539 CNS
SNB-19 CNS = tested on: SNB-19 CNS
A549 NSCLC = tested on: A549 NSCLC
UO-31 renal = tested on: UO-31 renal
HOP-92 NSCLC = tested on: HOP-92 NSCLC
MOLT-4 leukemia = tested on: MOLT-4 leukemia

Structure (SMILES)	TGI (M14 melanoma) [µM]	TGI (RXF 393 renal) [µM]	TGI (BT-549 breast) [µM]	TGI (IGROV1 ovarian) [µM]	TGI (UACC-62 melanoma) [µM]	TGI (SF-539 CNS) [µM]	TGI (SNB-19 CNS) [µM]	TGI (A549 NSCLC) [µM]	TGI (UO-31 renal) [µM]	TGI (HOP-92 NSCLC) [µM]	TGI (MOLT-4 leukemia) [µM]
CC12ON=C(c3ccccc3)N1C=CN1C(c3ccccc3)=NOC12 (stereo unspecified)	> 100	> 100	> 100	> 100	> 100	> 100	> 100	> 100	> 100	–	–
Nc1cccc(OCc2nc(N)nc(N)c2-c2ccc(Cl)cc2)c1	> 100	> 100	> 100	> 100	> 100	–	> 100	> 100	> 100	> 100	> 100
CN(/N=C\c1ccc2ccccc2c1)C1=NCCCCN1	–	42.6	46.8	> 100	64.2	48.6	–	58.3	55.8	7.4	48.2
COc1cc2c(cc1OC)C(Cl)C(c1cc(OC)c(OC)c(OC)c1)=C2Cl (stereo unspecified)	35.2	–	–	54.7	28.9	26.7	37.2	–	27.1	27.9	29.9
CCCCCCCSCC(O)COC(c1ccccc1)(c1ccccc1)c1ccccc1 (stereo unspecified)	> 100	–	> 100	> 100	> 100	> 100	> 100	> 100	27.8	> 100	> 100
O=C(NC(Nc1ccc(F)c(Cl)c1)(C(F)(F)F)C(F)(F)F)C(C(F)(F)F)C(F)(F)F	> 100	63.4	–	33.4	–	48.7	> 100	> 100	59.1	> 100	57
CSCCC(NC(c1ccccc1)c1ccccc1)[P+](=O)O (stereo unspecified)	> 100	–	> 100	> 100	> 100	–	> 100	> 100	> 100	> 100	> 100
CC1=C(C(=O)OC(C)C)C(c2ccccc2[N+](=O)[O-])C(C(=O)OC(CO[N+](=O)[O-])CO[N+](=O)[O-])=C(C)N1 (stereo unspecified)	14.3	15.5	26	27.9	8.14	–	23.8	12.9	16.2	–	5.9
O=C1c2cc(CCl)sc2C(=O)c2ccsc21	0.0462	0.883	–	2.83	0.319	0.553	0.527	0.417	0.962	1.47	0.47
CCN(CC)CCNc1ccc(C)c2sc3ccc(O)cc3c(=O)c12	2.48	5.82	–	5.19	2.21	2.5	15.6	1.91	3.82	7.17	1.16
CCC1(C)N=C(C(N)=O)c2ncn(N=C(C)C)c2N1 (stereo unspecified)	> 100	> 100	–	> 100	> 100	> 100	> 100	> 100	–	> 100	–
